Measurements published in patent publication US10519452B2, “Antiviral agent comprising RNA oligonucleotide” (priority 2015, dated 2019).
Where two headings read alike, the source gives them in different places. Oligonucleotides are written 5' to 3', each unit as a sugar letter and its base; * is a phosphorothioate linkage, no mark a phosphodiester; rarer units and linkages stand in square brackets, end groups in braces. Plain capitals give the bases only. {PPP} = triphosphate group; r = 2'-OH (RNA)

B1: 5′-OH-Int-NS1: RNA oligonucleotide composed of the base sequence of SEQ ID NO:7 with a hydroxy group at the 5′-end (nucleic acid)
chain: AGUAGAAACAAGGGUGUUUUUUAUUAUUAAAUAAGCUGAAGUGUUUGGAUCCAUUAUGUCUUUGUCACCCUGCUUUUGCU
modifications: RNA, backbone not given here; 5'-hydroxy
B2: 5′-OH-Long_Bend: Long-length RNA oligonucleotide composed of the base sequence of SEQ ID NO:19 with a hydroxy group at the 5′-end (nucleic acid)
chain: GGUAGACGAAACCAGAUAAAAAAAAAAAAAAAAAAAAAAAAAAUAAUUUUUUUUUUUUUUUUUUUUUUUUUUAUCUGGUUUCGUUUGCC
modifications: RNA, phosphodiester; 5'-hydroxy
B3: 5′-OH-Long_Bend-BPS: 5′-OH-Long_Bend RNA oligonucleotide with part of phosphodiester bonds substituted with phosphorothioate bonds (nucleic acid)
chain: B2 chain
modifications: RNA, backbone not given here; 5'-hydroxy, partial phosphorothioate
B4: 5′-OH-Long_Bend Short: RNA oligonucleotide composed of the base sequence of SEQ ID NO:20 with a hydroxy group at the 5′-end (nucleic acid)
chain: GGUAGACGAAAAAAAAAAAAAAAAAAAAAAAAAAUAAUUUUUUUUUUUUUUUUUUUUUUUUUUCGUUUGCC
modifications: RNA, backbone not given here; 5'-hydroxy

What was measured:
Assay type in all cases: cell-based
ISG56 = conditions: for change in ISG56 expression: same method as Experimental Example 1, real-time PCR vs GAPDH, FIGS. 5 to 8
[1] = tested on: influenza A virus/Puerto Rico/8/34(H1N1)(PR8)
[2] = tested on: influenza A virus/Puerto Rico/8/34(H1N1)(PR8); remark: listed apart in the source
interferon-β = conditions: HEK293T cells, 1 μM RNA oligonucleotide with lipofectamine LTX, real-time PCR vs GAPDH; FIG. 3 and FIG. 4
[3] = A549 cells infected with influenza A virus, FIG. 10 and FIG. 11

| Molecule | change in ISG56 expression (ISG56) | change in interferon-β expression (interferon-β) | other results |
| --- | --- | --- | --- |
| 5′-OH-8 bp-Bend-GC-Minimum: Minimum-length double-stranded RNA of SEQ ID NO:3 and SEQ ID NO:4, each with a 5′-hydroxy group (chain 1 GGUAGACG; chain 2 CGUUUGCC; RNA, backbone not given here; 5'-hydroxy ends) | increased the ISG56 expression to a significant level |  |  |
| 5′-OH-Bend-GC-8 bp-PS: 5′-OH-Bend-GC-8 bp RNA oligonucleotide with phosphodiester bonds substituted with phosphorothioate bonds (rG*rG*rU*rA*rG*rA*rC*rG*rU*rU*rC*rG*rC*rG*rU*rU*rU*rG*rC*rC; 5'-hydroxy, hairpin) | increased the ISG56 expression to a significant level |  | antiviral activity against influenza A virus (Western blot of viral NP and NS1) [1]: showed antiviral activity against influenza A virus in a concentration-dependent manner; antiviral activity against influenza A virus (plaque assay, titer of viruses) [2]: showed antiviral activity against influenza A virus in a concentration-dependent manner |
| 5′-PPP-iav: RNA oligonucleotide composed of the base sequence of SEQ ID NO:6 with a triphosphate group at the 5′-end (GAGUAGAAACAAGGCUUCGGCCUGCUUUUGCUC; RNA, 5' {PPP}, backbone not given here) | increase the expression of interferon-β and ISG56 | increase the expression of interferon-β and ISG56 |  |
| 5′-OH-iav: RNA oligonucleotide composed of the base sequence of SEQ ID NO:6 with a hydroxy group at the 5′-end (GAGUAGAAACAAGGCUUCGGCCUGCUUUUGCUC; RNA, backbone not given here; 5'-hydroxy) | increase the expression of interferon-β and ISG56 | increase the expression of interferon-β and ISG56 |  |
| 5′-OH-16mer-Double Bend: Double strands of two base sequences of SEQ ID NO:18, each with a 5′-hydroxy group; palindromic, two helical bend structures (chain 1 GGUAGACGCGUUUGCC; chain 2 GGUAGACGCGUUUGCC; sugars by position and backbone not given here; 5'-hydroxy ends, palindromic duplex) | increased the ISG56 expression to a significant level |  |  |
| 5′-OH-Bend-GC: RNA oligonucleotide composed of the base sequence of SEQ ID NO:8 with a hydroxy group at the 5′-end (GGUAGACGCGCGCGUUCGCGCGCGCGUUUGCC; RNA, backbone not given here; 5'-hydroxy, hairpin) |  | increased the interferon-β expression to a significant level |  |
| 5′-OH-Bend-GC-8 bp: Shorter hairpin RNA composed of the base sequence of SEQ ID NO:10 with a hydroxy group at the 5′-end (GGUAGACGUUCGCGUUUGCC; RNA, phosphodiester; 5'-hydroxy, hairpin) |  | increased the interferon-β expression to a significant level |  |
| B1 |  | increased the interferon-β expression to a significant level |  |
| B2 | increased the ISG56 expression to a significant level |  | concentration at which expression of viral protein was significantly inhibited (Western blot) [1, 3]: ≥ 10 nM; antiviral effect at low concentration compared with positive control (Western blot) ([1]; A549 cells, 10 nM, positive control 0.1 μg/ml poly I:C, FIG. 9A): excellent effect corresponding to the positive control group (poly I:C); antiviral activity against influenza A virus (Western blot of viral NP and NS1) ([1]; A549 cells, 10, 30 or 100 nM, transfected 24 h before infection at 0.1 MOI, FIG. 9A): showed antiviral activity against influenza A virus in a concentration-dependent manner; antiviral effect at low concentration compared with positive control (plaque assay) ([2]; A549 cells, 10 nM, positive control 0.1 μg/ml poly I:C, FIG. 9B): excellent effect corresponding to the positive control group (poly I:C); antiviral activity against influenza A virus (plaque assay, titer of viruses) ([2]; A549 cells, 10, 30 or 100 nM, titer on MDCK cells, FIG. 9B): showed antiviral activity against influenza A virus in a concentration-dependent manner |
| B3 | increased the ISG56 expression to a significant level |  | increase in the ISG56 expression as compared to 5′-OH-Bend-GC-8 bp (ISG56; FIG. 8): about 7 fold; concentration at which expression of viral protein was significantly inhibited (Western blot) [1]: ≥ 1 nM |
| B4 |  |  | concentration at which expression of viral protein was significantly inhibited (Western blot) [1, 3]: 100 nM |
